Measurements taken from US10300071B2, “Compositions and methods for inhibition of mycobacteria” (priority 2014, dated 2019).
In brackets after ≈: the same amount, converted by molar mass. Like-named read-outs stand apart in the source and are kept apart here.

How the values were obtained:
[1] = target: Mtb AccD6 (Mycobacterium tuberculosis, UniProt P9WQH5); test: biochemical; format: biochemical; details: for IC50: 300 μM malonyl-CoA, inhibitor 10 μM to 2000 μM; for Mtb AccD6 inhibition: preliminary studies of commercially available herbicides
Chain of Mtb AccD6 (P9WQH5 whole entry, looked up): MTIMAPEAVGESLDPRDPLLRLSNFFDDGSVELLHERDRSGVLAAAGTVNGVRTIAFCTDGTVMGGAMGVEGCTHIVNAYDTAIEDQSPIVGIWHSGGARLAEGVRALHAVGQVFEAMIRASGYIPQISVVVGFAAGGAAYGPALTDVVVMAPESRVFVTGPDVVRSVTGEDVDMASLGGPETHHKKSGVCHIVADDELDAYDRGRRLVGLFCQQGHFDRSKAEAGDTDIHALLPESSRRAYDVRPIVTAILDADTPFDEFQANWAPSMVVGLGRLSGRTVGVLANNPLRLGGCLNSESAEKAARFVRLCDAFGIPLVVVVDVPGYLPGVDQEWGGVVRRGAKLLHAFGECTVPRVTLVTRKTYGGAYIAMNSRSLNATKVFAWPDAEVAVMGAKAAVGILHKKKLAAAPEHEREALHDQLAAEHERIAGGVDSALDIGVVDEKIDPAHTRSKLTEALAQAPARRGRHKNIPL

[2] = test system: Mtb strain mc^2-7000; test: microbe, parasite or virus in culture; format: cell-based, Mycobacterium tuberculosis; details: for MIC: 6 days incubation at 37° C., resazurin, read on the 7th day; for whole Mycobacterium tuberculosis cell inhibition: preliminary studies of commercially available herbicides
[3] = Mycobacterium tuberculosis, 144 h, read-out: MIC
[4] = 20 uM, pH 8.0, read-out: inhibition at 20 uM- pH 8.0
[5] = 20 uM, pH 8.5, read-out: inhibition at 20 uM- pH 8.5

Row | Structure (SMILES) | IC50 ([1]; read-out: IC50) [nM] | MIC [2, 3] [µM] | also measured
1 | CC(C)NC(=O)Cc1ccc(Oc2nc3ccc(F)cc3s2)cc1O [NZ-405, 2-{4-[(6-fluoro-1,3-benzothiazol-2-yl)oxy]-2-hydroxyphenyl}-N-(propan-2-yl)acetamide] | 150 | 17.5 (≈ 6.31 µg/mL) | –
2 | CCOC(=O)[C@@H](C)Oc1ccc(Oc2nc3ccccc3s2)cc1 [NZ-252, ethyl (2R)-2-[4-(1,3-benzothiazol-2-yloxy)phenoxy]propanoate] | – | – | IC50 [1]: Not Soluble; MIC [2]: Not Soluble
3 | CC(C)=NOCCOC(=O)C(C)Oc1ccc(Oc2cnc3cc(Cl)ccc3n2)cc1 (centres unmarked) [propaquizafop, 2-{[(propan-2-ylidene)amino]oxy}ethyl 2-{4-[(6-chloroquinoxalin-2-yl)oxy]phenoxy}propanoate, reference compound] | 2100 | 1.56 (≈ 0.692 µg/mL) | –
4 | NCCC(=O)Nc1ccc(Oc2nc3ccc(F)cc3s2)cc1 [NZ-416, 3-amino-N-{4-[(6-fluoro-1,3-benzothiazol-2-yl)oxy]phenyl}propanamide] | – | – | inhibition at 20 µM ([1]; read-out: inhibition at 20 uM): 20%
5 | COC(=O)/C=C/c1ccc(Oc2nc3ccc(Cl)cc3s2)cc1 [NZ-281, methyl (2E)-3-{4-[(6-chloro-1,3-benzothiazol-2-yl)oxy]phenyl}prop-2-enoate] | – | 50 (≈ 17.3 µg/mL) | inhibition at 20 µM ([1]; read-out: inhibition at 20 uM): 30%
6 | CC(C)NC(=O)Cn1ccc(Oc2nc3ccc(Cl)cc3s2)cc1=O [NZ-404, 2-{4-[(6-chloro-1,3-benzothiazol-2-yl)oxy]-2-oxo-1,2-dihydropyridin-1-yl}-N-(propan-2-yl)acetamide] | 14400 | – | % at 50 uM [2]: 38% at 50 uM
7 | CNC(=O)C(C)c1ccc(Oc2nc3ccc(F)cc3s2)cc1O (centres unmarked) [NZ-408, 2-{4-[(6-fluoro-1,3-benzothiazol-2-yl)oxy]-2-hydroxyphenyl}-N-methylpropanamide] | 210 | 6.5 (≈ 2.25 µg/mL) | –
8 | CONC(=O)CN1CCC(Oc2nc3ccc(Cl)cc3s2)CC1 [WUXI-N4, 2-{4-[(6-chloro-1,3-benzothiazol-2-yl)oxy]piperidin-1-yl}-N-methoxyacetamide] | – | – | inhibition at 20 uM ([1]; 20 uM): No inhibition at 20 uM
9 | CC(C)NC(=O)Nc1ccc(Oc2nc3ccc(Cl)cc3s2)nn1 [WuXi-N7, 1-{6-[(6-chloro-1,3-benzothiazol-2-yl)oxy]pyridazin-3-yl}-3-(propan-2-yl)urea] | – | – | inhibition at 20 µM ([1]; read-out: inhibition at 20 uM): 18%
10 | O=C(COc1ccc(Oc2cnc3cc(Cl)ccc3n2)cc1)NS(=O)(=O)c1ccccc1 [NZ-276, N-(benzenesulfonyl)-2-{4-[(6-chloroquinoxalin-2-yl)oxy]phenoxy}acetamide] | 7300 | 3.1 (≈ 1.46 µg/mL) | –
11 | Clc1ccc2nc(Oc3ccccc3)sc2c1 [NZ-292, 6-chloro-2-phenoxy-1,3-benzothiazole] | – | 12 (≈ 3.14 µg/mL) | inhibition at 20 µM ([1]; read-out: inhibition at 20 uM): 42%
12 | CC(C)NC(=O)Cc1ccc(O)cc1Oc1nc2ccc(F)cc2s1 [NZ-406, 2-{2-[(6-fluoro-1,3-benzothiazol-2-yl)oxy]-4-hydroxyphenyl}-N-(propan-2-yl)acetamide] | – | – | IC50 [1]: Not Active; % at 50 uM [2]: 46% at 50 uM
13 | CN(O)C(=O)COc1ccc(Oc2cnc3cc(Cl)ccc3n2)cc1 [NZ-279, 2-{4-[(6-chloroquinoxalin-2-yl)oxy]phenoxy}-N-hydroxy-N-methylacetamide] | 800 | > 50 | –
14 | CNC(=O)Cc1ccc(Oc2nc3ccc(F)cc3s2)cc1F [NZ-410, 2-{2-fluoro-4-[(6-fluoro-1,3-benzothiazol-2-yl)oxy]phenyl}-N-methylacetamide] | 380 | – | –
15 | O=C(COc1ccc(Oc2cnc3cc(Cl)ccc3n2)cc1)N1CCCCC1 [NZ-265, 2-{4-[(6-chloroquinoxalin-2-yl)oxy]phenoxy}-1-(piperidin-1-yl)ethan-1-one] | 570 | 3 (≈ 1.19 µg/mL) | –
16 | CCOC(COc1ccc(Oc2cnc3cc(Cl)ccc3n2)cc1)OCC [NZ-272, 6-chloro-2-[4-(2,2-diethoxyethoxy)phenoxy]quinoxaline] | 5800 | > 12.5 | –
17 | O=C(COc1ccc(Oc2cnc3cc(Cl)ccc3n2)cc1)N1CCOCC1 [NZ-266, 2-{4-[(6-chloroquinoxalin-2-yl)oxy]phenoxy}-1-(morpholin-4-yl)ethan-1-one] | 990 | > 12.5 | –
18 | CN1CCN(C(=O)Cc2ccc(Oc3nc4cc(F)c(F)cc4s3)cc2)CC1 [NZ-409, 2-{4-[(5,6-difluoro-1,3-benzothiazol-2-yl)oxy]phenyl}-1-(4-methylpiperazin-1-yl)ethan-1-one] | 660 | – | –
19 | NCC(=O)Nc1ccc(Oc2nc3ccc(F)cc3s2)cc1 [NZ-417, 2-amino-N-{4-[(6-fluoro-1,3-benzothiazol-2-yl)oxy]phenyl}acetamide] | – | – | inhibition at 20 µM ([1]; read-out: inhibition at 20 uM): 10%
20 | CCCC(=NOCC)C1=C(O)CC(C2CCCSC2)CC1=O (centres unmarked) [cycloxydim, reference compound] | – | – | Mtb AccD6 inhibition [1]: only haloxyfop exhibited Mtb AccD6 inhibition; whole Mycobacterium tuberculosis cell inhibition [2]: none exhibited whole Mycobacterium tuberculosis cell inhibition
21 | CONC(=O)Nc1ccc(Oc2cnc3cc(Cl)ccc3n2)cc1 [NZ-344, 1-{4-[(6-chloroquinoxalin-2-yl)oxy]phenyl}-3-methoxyurea] | 4100 | 25 (≈ 8.62 µg/mL) | –

Row | Structure (SMILES) | IC50 ([1]; read-out: IC50) [nM] | MIC [2, 3] [µM] | also measured
22 | Nc1ccc(Oc2nc3ccc(F)cc3s2)cc1 [NZ-413, 4-[(6-fluoro-1,3-benzothiazol-2-yl)oxy]aniline] | 14000 | – | –
23 | CC(C)NC(=O)Nc1ccc(Oc2nc3ccc(Cl)cc3s2)nc1 [WuXi-N6, 1-{6-[(6-chloro-1,3-benzothiazol-2-yl)oxy]pyridin-3-yl}-3-(propan-2-yl)urea] | – | – | inhibition at 20 µM [1, 4]: 11%; inhibition at 20 µM [1, 5]: 17%
24 | O=C(O)CCc1ccc(Oc2nc3ccc(Cl)cc3s2)cc1 [NZ-282, 3-{4-[(6-chloro-1,3-benzothiazol-2-yl)oxy]phenyl}propanoic acid] | – | – | inhibition at 20 µM ([1]; read-out: inhibition at 20 uM): 40%; MIC [2]: Not Active
25 | O=C(O)COc1ccc(Oc2cnc3cc(Cl)ccc3n2)cc1 [NZ-257, 2-{4-[(6-chloroquinoxalin-2-yl)oxy]phenoxy}acetic acid] | 1500 to 1900 | – | –
26 | CCC/C(=N\OCC)C1=C(O)CC(CC(C)SCC)CC1=O (centres unmarked) [sethoxydim, reference compound] | – | – | Mtb AccD6 inhibition [1]: only haloxyfop exhibited Mtb AccD6 inhibition; whole Mycobacterium tuberculosis cell inhibition [2]: none exhibited whole Mycobacterium tuberculosis cell inhibition
27 | CC(Oc1ccc(Oc2ccc(Cl)cc2Cl)cc1)C(=O)O (centres unmarked) [diclofop, reference compound] | – | – | Mtb AccD6 inhibition [1]: only haloxyfop exhibited Mtb AccD6 inhibition; whole Mycobacterium tuberculosis cell inhibition [2]: none exhibited whole Mycobacterium tuberculosis cell inhibition
28 | CC(C)NC(=O)Nc1ccc(Oc2nc3ccc(Cl)cc3s2)cn1 [WuXi-N8, 1-{5-[(6-chloro-1,3-benzothiazol-2-yl)oxy]pyridin-2-yl}-3-(propan-2-yl)urea] | – | – | inhibition at 20 µM [1, 4]: 40%; inhibition at 20 µM [1, 5]: 47%
29 | CONC(=O)CCN1CCC(Oc2nc3ccc(Cl)cc3s2)CC1 [WUXI-N5, 3-{4-[(6-chloro-1,3-benzothiazol-2-yl)oxy]piperidin-1-yl}-N-methoxypropanamide] | – | – | inhibition at 20 uM ([1]; 20 uM): No inhibition at 20 uM
30 | C[C@@H](Oc1ccc(Oc2nc3ccc(Cl)cc3s2)cc1)C(=O)O [NZ-247, (2R)-2-{4-[(6-chloro-1,3-benzothiazol-2-yl)oxy]phenoxy}propanoic acid] | 2500 | – | –
31 | CCOC(=O)[C@@H](C)Oc1ccc(Oc2nc3ccc(Cl)cc3s2)cc1 [NZ-246, ethyl (2R)-2-{4-[(6-chloro-1,3-benzothiazol-2-yl)oxy]phenoxy}propanoate] | – | 3 (≈ 1.13 µg/mL) | –
32 | CC(Oc1ccc(Oc2ncc(C(F)(F)F)cc2Cl)cc1)C(=O)O (racemic) [haloxyfop, (RS)-2-{4-[3-chloro-5-(trifluoromethyl)-2-pyridyloxy]phenoxy}propionic acid, reference compound] | – | – | whole Mycobacterium tuberculosis cell inhibition [2]: none exhibited whole Mycobacterium tuberculosis cell inhibition
33 | C[C@@H](Oc1ccc(Oc2nc3ccc(F)cc3s2)cc1)C(=O)O [NZ-255, (2R)-2-{4-[(6-fluoro-1,3-benzothiazol-2-yl)oxy]phenoxy}propanoic acid] | 1200 | – | –
34 | CCOC(=O)[C@@H](C)Oc1ccc(Oc2nc3ccc([N+](=O)[O-])cc3s2)cc1 [NZ-260, ethyl (2R)-2-{4-[(6-nitro-1,3-benzothiazol-2-yl)oxy]phenoxy}propanoate] | – | 0.19 to 2.3 (≈ 0.0738 to 0.893 µg/mL) | –
35 | C[C@@H](Oc1ccc(Oc2nc3ccccc3s2)cc1)C(=O)O [NZ-254, (2R)-2-[4-(1,3-benzothiazol-2-yloxy)phenoxy]propanoic acid] | > 15000 | – | –
36 | CC(C)(C)OC(=O)Nc1ccc(Oc2nc3ccc(F)cc3s2)cc1 [NZ-412, terl-butyl N-{4-[(6-fluoro-1,3-benzothiazol-2-yl)oxy]phenyl}carbamate] | – | – | inhibition at 20 µM ([1]; read-out: inhibition at 20 uM): 17%
37 | C[C@@H](Oc1ccc(Oc2nc3ccc(Br)cc3s2)cc1)C(=O)O [NZ-253, (2R)-2-{4-[(6-bromo-1,3-benzothiazol-2-yl)oxy]phenoxy}propanoic acid] | > 15000 | – | –
38 | CNC(=O)Cc1ccc(Oc2nc3cc(F)c(F)cc3s2)cc1F [NZ-411, 2-{4-[(5,6-difluoro-1,3-benzothiazol-2-yl)oxy]-2-fluorophenyl}-N-methylacetamide] | 240 | – | –
39 | CC(C)(C)OC(=O)NCC(=O)Nc1ccc(Oc2nc3ccc(F)cc3s2)cc1 [NZ-415, tert-butyl N-[({4-[(6-fluoro-1,3-benzothiazol-2-yl)oxy]phenyl}carbamoyl)methyl]carbamate] | 20000 | – | –
40 | C[C@@H](Oc1ccc(Oc2nc3ccc([N+](=O)[O-])cc3s2)cc1)C(=O)O [NZ-261, (2R)-2-{4-[(6-nitro-1,3-benzothiazol-2-yl)oxy]phenoxy}propanoic acid] | 1800 | – | –
41 | COC(=O)COc1ccc(Oc2cnc3cc(Cl)ccc3n2)cc1 [NZ-256, methyl 2-{4-[(6-chloroquinoxalin-2-yl)oxy]phenoxy}acetate] | – | 1.5 | –
42 | CCOC(=O)[C@@H](C)Oc1ccc(Oc2nc3ccc(Br)cc3s2)cc1 [NZ-250, ethyl (2R)-2-{4-[(6-bromo-1,3-benzothiazol-2-yl)oxy]phenoxy}propanoate] | – | 3.12 (≈ 1.32 µg/mL) | –
